{"source": "patent US20230295152A1", "about": "(SENDA BIOSCIENCES, INC., priority 2019, published 2023)", "key": {"[1]": {"assay": "Hepatocyte Stability Assay, mouse; for all read-outs here: tested at 1 µM", "assay_type": "in vitro ADME", "conditions": "mouse hepatocytes", "experimental": "Example 7: Hepatocyte Stability Assay\n• Preparation of working solutions: 10 mM stock solutions of test compound and positive control were prepared in DMSO. In separate conical tubes, the 10 mM solution of test compound and the positive control were diluted to 100 μM by combining 198 μL of 50% acetonitrile/50% water and 2 μL of 10 mM stock.\nData Analysis: All calculations were carried out using Microsoft Excel. Peak areas were determined from extracted ion chromatograms. In vitro half-life (t1/2) of parent compound was determined by regression analysis of the percent parent disappearance vs. time curve.\nThe in vitro half-life (in vitro t1/2) was determined from the slope value:\nConversion of the in vitro t1/2 (in min) into the in vitro intrinsic clearance (in vitro CLint, in μL/min/1×10^6 cells) was done using the following equation (mean of duplicate determinations):\nV=incubation volume(0.2 mL);\nN=number of hepatocytes per well(0.1×10^6 cells)."}, "[2]": {"assay": "Plasma Protein Binding with Ultracentrifugation Method, mouse", "assay_type": "in vitro ADME", "conditions": "mouse plasma, 1.0 μM; read-out: Mouse plasma protein binding (% bound)", "experimental": "The frozen plasma (stored at −80° C.) was thawed in a 37° C. water bath, followed by centrifugation at 3,220 g for 10 minutes to remove clots. The supernatant was removed into a new tube as the spun plasma. The spun plasma was pre-warmed in a 37° C. water bath for 10 minutes. The stock solutions of test compounds were diluted to 200 μM in DMSO, and then spiked into the plasma. Duplicate samples were prepared. The final concentration of compound was 1.0 μM. The final concentration of organic solvent was 0.5%. Warfarin was used as positive control in the assay. 1.0 mL of the spiked plasma was transferred to a new balance ultracentrifuge tube. Samples were incubated at 37° C., 5% CO2 for 30 minutes. After incubation, the balance ultracentrifuge tubes were centrifuged at 600,000 g for 5.5 hours at 37° C. After centrifugation, 50 μL solution was removed from the center of the ultracentrifuge tubes as the post-ultracentrifugation samples, followed by the addition of 50 μL blank plasma and 400 μL quench solution (acetonitrile containing internal standards (IS, 100 nM Alprazolam, 500 nM Labetalol and 2 μM Ketoprofen)) to precipitate protein and release compounds. Samples were vortexed for 2 minutes, followed by centrifugation at 20,000 g for 15 minutes at room temperature. The supernatant was diluted with ultrapure water and then used for LC-MS/MS analysis. Stability samples was prepared by transferring 50 μL of the spiked plasma to 0.6 mL tubes and incubated at 37° C., 5% CO2 for 0.5 and 6 hours. After incubation, 50 μL PBS (100 mM, pH7.4) and 400 μL quench solution were added to the stability samples. And then stability samples were treated the same way as the post-ultracentrifugation samples. The supernatant was diluted with ultrapure water and then used for LC-MS/MS analysis. 0.5 hour time point samples were also used as no-spun controls. Time 0 samples were prepared by transferring 50 μL spiked plasma to 0.6 mL tubes containing 50 μL PBS, followed by the addition of 400 μL quench solution to precipitate protein and release compound. And then these samples were treated the same way as the post-ultracentrifugation samples. The supernatant was diluted with ultrapure water and then used for LC-MS/MS analysis.\nData Analysis: All calculations were carried out using Microsoft Excel. The concentrations of test compound in plasma samples and post-ultracentrifugation plasma was determined from peak areas. The percentages of test compound bound was calculated as follows: […]\n“+++” indicates a % bound value less than 50, “++” indicates a % bound value between 50 and 75, and “+” indicates a % bound value above 75."}, "[3]": {"assay": "In vivo PK study in male Sprague Dawley rats", "conditions": "rats; for C0 / AUC(0-inf) / AUC(0-t) / half-life / Cmax / Tmax / bioavailability: male, Sprague Dawley, rat, plasma; for AUC(0-inf): read-out: AUCInf Mean; for AUC(0-t): read-out: AUCLast Mean; for half-life: read-out: T1/2 Mean (converted); for bioavailability: read-out: Bioavailability", "experimental": "The studies were conducted in male Sprague Dawley rats, three rats per group, or male CD1 mice, three mice per group. Compounds were dosed 1.0 mg/Kg i.v. (vehicle ethanol: % PEG400 in deionized water, in proportions suitable for dosing a clear solution) and 3.0 mg/kg or 10 mg/kg p.o. (vehicle: 1% methyl cellulose: 1,500 cP in DI water (w/v)). A11 animals had free access to food and water. Rat i.v. PK time points: Plasma: 0.083, 0.25, 0.5, 1, 2, 4, 8 and 24 h; Rat p.o. PK time points: Plasma: 0.25, 0.5, 1, 2, 4, 8 and 24 h. Mouse i.v. PK time points: Plasma: 0.083, 0.25, 0.5, 1, 2, 4, 8, 24, and 48 h; Mouse p.o. PK time points: Plasma: 0.25, 0.5, 1, 2, 4, 8, 24, and 48 h. Concentrations of compound in the plasma samples were analyzed using a LC-MS/MS method. WinNonlin (Phoenix™, version 6.1) or other similar software was used for pharmacokinetic calculations."}}, "note": "Read-outs that look alike come from different tables or passages of the source."}
{"smiles": "CC(C)(O)Cn1cnc2c(-c3cccnc3)nc(-c3ccc(C(F)(F)F)cn3)cc2c1=O", "note": "[Compound 105]", "values": [{"measurement": "Mouse hepatocyte clearance", "setting": "[1]", "value": "++ (“++” indicates a CLint between 20 and 50 mL/min/Kg)"}, {"measurement": "fraction unbound at 30 min, 1 μM", "setting": "[2]", "value": "< 0.25"}, {"measurement": "C0", "setting": "[3]; 1 mg/kg IV", "value": 411, "unit": "ng/mL"}, {"measurement": "AUC(0-inf)", "setting": "[3]; 1 mg/kg IV", "value": 9520, "unit": "ng·h/mL"}, {"measurement": "AUC(0-t)", "setting": "[3]; 1 mg/kg IV", "value": 4410, "unit": "ng·h/mL"}, {"measurement": "half-life", "setting": "[3]; 1 mg/kg IV", "value": 27.1, "unit": "h"}, {"measurement": "Cmax", "setting": "[3]; PO, dosage of 3 mg/kg", "value": 592, "unit": "ng/mL"}, {"measurement": "Tmax", "setting": "[3]; PO, dosage of 3 mg/kg", "value": 6.67, "unit": "h"}, {"measurement": "AUC(0-t)", "setting": "[3]; PO, dosage of 3 mg/kg", "value": 11900, "unit": "ng·h/mL"}, {"measurement": "bioavailability", "setting": "[3]; PO, dosage of 3 mg/kg", "value": 90.2, "unit": "%"}, {"measurement": "CI Mean", "setting": "[3]; 1 mg/kg IV", "value": 29.5, "unit": "mL/min/kg"}]}
{"smiles": "C[C@@H](CO)n1cnc2c(-c3cccc(F)c3)nc(-c3ccc(Cl)cc3)cc2c1=O", "note": "[Compound 7]", "values": [{"measurement": "Mouse hepatocyte clearance", "setting": "[1]", "value": "++ (“++” indicates a CLint between 20 and 50 mL/min/Kg)"}, {"measurement": "fraction unbound at 30 min, 1 μM", "setting": "[2]", "value": "< 0.25"}, {"measurement": "C0", "setting": "[3]; 1 mg/kg IV", "value": 212, "unit": "ng/mL"}, {"measurement": "AUC(0-inf)", "setting": "[3]; 1 mg/kg IV", "value": 1000, "unit": "ng·h/mL"}, {"measurement": "AUC(0-t)", "setting": "[3]; 1 mg/kg IV", "value": 659, "unit": "ng·h/mL"}, {"measurement": "half-life", "setting": "[3]; 1 mg/kg IV", "value": 5.31, "unit": "h"}, {"measurement": "Cmax", "setting": "[3]; PO, dosage of 3 mg/kg", "value": 224, "unit": "ng/mL"}, {"measurement": "Tmax", "setting": "[3]; PO, dosage of 3 mg/kg", "value": 3.33, "unit": "h"}, {"measurement": "AUC(0-t)", "setting": "[3]; PO, dosage of 3 mg/kg", "value": 2400, "unit": "ng·h/mL"}, {"measurement": "bioavailability", "setting": "[3]; PO, dosage of 3 mg/kg", "value": 110, "unit": "%"}, {"measurement": "Cmax", "setting": "[3]; PO, dosage of 10 mg/kg", "value": 610, "unit": "ng/mL"}, {"measurement": "Tmax", "setting": "[3]; PO, dosage of 10 mg/kg", "value": 3.33, "unit": "h"}, {"measurement": "AUC(0-t)", "setting": "[3]; PO, dosage of 10 mg/kg", "value": 7820, "unit": "ng·h/mL"}, {"measurement": "bioavailability", "setting": "[3]; PO, dosage of 10 mg/kg", "value": 105, "unit": "%"}, {"measurement": "CI Mean", "setting": "[3]; 1 mg/kg IV", "value": 295, "unit": "mL/min/kg"}]}
